The text below walks through data of US7563886B2, “Nucleoside releasing functional unit through oxidation and process for producing oligonucleotide containing thereof” (Japan Science and Technology Agency, priority 2003, dated 2009).

Data set [1] is described as follows: Oxidation with sodium hexachloroiridate(IV). The following applies: in 15 minutes.
Data set [2] can be described thus: Photooxidation of single-stranded oligonucleotide, irradiation at 366 nm in the presence of riboflavin. It is filed as physicochemical. The note with it: single-stranded ODN, irradiated at 366 nm in the presence of riboflavin. From the text: The inventors conducted photooxidization of the oligonucleotide (7) containing benzoyl-^edaG (^Bz-edaG), for example, 5′-d(TATAAT^Bz-edaGTAATAT)-3′.
The single-stranded oligonucleotide (ODN) 5′-d(TATAAT^edaGTAATAT)-3′ was irradiated at 366 nm in the presence of riboflavin.

Data set [3] in a line: Measurement of oxidation potential (E1/2). Format: physicochemical. The following applies: vs. NHE; 100 mM LiClO4 solution, room temperature. How it is done:
The oxidation potential (E1/2) of benzoyl-^edaG was measured in 100 mM LiClO4 solution at room temperature by ALS electrochemical analyzer model 660-A. The scanning speed was 100 mV/sec. A glass carbon electrode was used as a sample electrode; a platinum wire as a counter electrode; and SCE as a reference electrode.

Take 5′-d(TATAAT^Bz-edaGTAATAT)-3′: in data set [1], the “decomposed at the site of the modified edaG” value is 57%. Besides, the t1/2 of decomposition in data set [2] came to 6.2 min.

Regarding 5′-d(TATAAT^edaGTAATAT)-3′, the t1/2 of decomposition in data set [2] worked out at 6.2 min. With benzoyl-^edaG [^Bz-edaG], the “oxidation potential (E1/2)” value in data set [3] is on record as 0.59 V.
